Measured values: ChEMBL document CHEMBL4007489, “First Bispecific Inhibitors of the Epidermal Growth Factor Receptor Kinase and the NF-κB Activity As Novel Anticancer Agents” (J Med Chem, 2017)

Tests used:
[1] = biological target: T1, Epidermal growth factor receptor (Homo sapiens, UniProt P00533); assay: biochemical; format: cell-based
MDA-MB-231 = assay: cells; format: functional; details: Homo sapiens, MDA-MB-231, 48 h
Description: Growth inhibition of human MDA-MB-231 cells after 48 hrs by MTT assay

Homo sapiens [2] = species: Homo sapiens; details: at 10 µM;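 also: luciferase reporter readout of NF-kappaB activity in human U937 cells, compound added 3 h before TNFalpha stimulation, signal read 2.5 h after stimulation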
Description: Inhibition of TNFalpha-stimulated NF-kappaB (unknown origin) expressed in human U937 cells at 10 uM incubated for 3 hrs followed by TNFalpha stimulation measured after 2.5 hrs by luciferase reporter gene assay

[3] = biological target: T1, Epidermal growth factor receptor; details: at 150 nM
cells = format: cell-based; details: Homo sapiens, U-937
Description: Inhibition of TNFalpha-stimulated NF-kappaB (unknown origin) expressed in human U937 cells incubated for 3 hrs followed by TNFalpha stimulation measured after 2.5 hrs by luciferase reporter gene assay

Homo sapiens [4] = species: Homo sapiens; assay: Inhibition of TNFalpha-stimulated NF-kappaB (unknown origin) expressed in human U937 cells at 5 uM incubated for 3 hrs followed by TNFalpha stimulation measured after 2.5 hrs by luciferase reporter gene assay; format: cell-based

T1 sequence (P00533 whole entry): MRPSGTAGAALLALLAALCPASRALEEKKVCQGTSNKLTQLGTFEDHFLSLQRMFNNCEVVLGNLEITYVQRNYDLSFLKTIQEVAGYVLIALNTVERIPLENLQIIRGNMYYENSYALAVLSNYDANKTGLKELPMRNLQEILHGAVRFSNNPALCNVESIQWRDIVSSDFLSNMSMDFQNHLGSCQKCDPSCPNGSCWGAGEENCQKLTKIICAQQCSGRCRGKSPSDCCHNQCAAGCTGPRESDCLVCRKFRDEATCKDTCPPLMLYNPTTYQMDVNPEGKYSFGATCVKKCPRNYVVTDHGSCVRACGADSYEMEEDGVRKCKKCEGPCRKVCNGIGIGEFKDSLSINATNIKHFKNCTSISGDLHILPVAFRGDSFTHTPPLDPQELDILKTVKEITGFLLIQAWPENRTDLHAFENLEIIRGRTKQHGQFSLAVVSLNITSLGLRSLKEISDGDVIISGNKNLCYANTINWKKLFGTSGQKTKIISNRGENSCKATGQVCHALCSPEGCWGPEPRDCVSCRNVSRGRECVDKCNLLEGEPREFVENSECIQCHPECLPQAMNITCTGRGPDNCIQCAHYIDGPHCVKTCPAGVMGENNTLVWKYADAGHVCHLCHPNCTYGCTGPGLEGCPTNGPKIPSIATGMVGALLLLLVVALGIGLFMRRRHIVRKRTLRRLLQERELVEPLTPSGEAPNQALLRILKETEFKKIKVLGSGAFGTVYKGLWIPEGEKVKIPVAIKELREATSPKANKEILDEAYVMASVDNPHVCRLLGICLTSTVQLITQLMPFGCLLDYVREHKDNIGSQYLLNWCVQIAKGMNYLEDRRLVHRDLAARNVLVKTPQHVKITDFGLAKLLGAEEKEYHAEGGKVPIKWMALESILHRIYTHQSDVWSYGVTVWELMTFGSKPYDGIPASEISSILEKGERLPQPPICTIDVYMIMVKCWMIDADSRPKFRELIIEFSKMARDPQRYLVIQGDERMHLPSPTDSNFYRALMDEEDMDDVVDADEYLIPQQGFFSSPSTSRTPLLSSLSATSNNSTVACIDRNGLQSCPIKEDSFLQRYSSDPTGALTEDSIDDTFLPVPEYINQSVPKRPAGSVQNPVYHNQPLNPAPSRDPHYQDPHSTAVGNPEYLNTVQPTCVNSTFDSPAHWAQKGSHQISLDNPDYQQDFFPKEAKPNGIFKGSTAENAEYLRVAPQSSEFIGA

S=C(NCc1ccc(Cl)cc1)Nc1ccc2ncnc(Nc3cccc(Br)c3)c2c1
IC50 [1]: 28.3 nM
GI50 (MDA-MB-231): 23000 nM
inhibition (Homo sapiens [2]): 78.6%
inhibition [3]: 77.5%

FC(F)(F)c1nnc(NC(=S)Nc2ccc3ncnc(Nc4cccc(Cl)c4)c3c2)s1
IC50 [1]: 130 nM
IC50 (cells): 1000 nM
inhibition (Homo sapiens [4]): 80.5%
inhibition [3]: 70.7%

S=C(Nc1ccc(Cl)cc1)Nc1ccc2ncnc(Nc3cccc(Br)c3)c2c1
IC50 [1]: 19.5 nM
IC50 (cells): 4900 nM
GI50 (MDA-MB-231): 8200 nM
inhibition (Homo sapiens [2]): 89.5%
inhibition [3]: 79.6%

O=S(=O)(Nc1nccs1)c1ccc(NC(=S)Nc2ccc3ncnc(Nc4cccc(Br)c4)c3c2)cc1
IC50 [1]: 22 nM
GI50 (MDA-MB-231): > 30000 nM
inhibition (Homo sapiens [2]): 16.5%
inhibition [3]: 81.7%

FC(F)(F)c1cc(NC(=S)Nc2ccc3ncnc(Nc4cccc(Br)c4)c3c2)ccc1Cl
IC50 [1]: > 150 nM
IC50 (cells): 1700 nM
GI50 (MDA-MB-231): 1100 nM
inhibition (Homo sapiens [2]): 99%
inhibition [3]: 44%

CC(C)(C)c1ccc(Nc2ncnc3ccc(NC(=S)NCc4ccccc4)cc23)cc1
IC50 [1]: > 150 nM
IC50 (cells): 5510 nM
GI50 (MDA-MB-231): 8700 nM
inhibition (Homo sapiens [2]): 91.9%
inhibition [3]: 0.9%

S=C(Nc1ccc(Br)cc1)Nc1ccc2ncnc(Nc3cccc(Br)c3)c2c1
IC50 [1]: 35.4 nM
IC50 (cells): 2000 nM
GI50 (MDA-MB-231): > 30000 nM
inhibition (Homo sapiens [2]): 96.7%
inhibition [3]: 70.4%

S=C(NCc1ccccc1)Nc1ccc2ncnc(Nc3cccnc3)c2c1
IC50 [1]: > 150 nM
GI50 (MDA-MB-231): 17900 nM
inhibition (Homo sapiens [2]): 7.7%
inhibition [3]: 38.5%

FC(F)(F)c1cc(NC(=S)Nc2ccc3ncnc(Nc4cccc(Br)c4)c3c2)cc(C(F)(F)F)c1
IC50 [1]: > 150 nM
IC50 (cells): 1900 nM
GI50 (MDA-MB-231): 800 nM
inhibition (Homo sapiens [2]): 100%
inhibition [3]: 32.3%

S=C(NCc1ccccc1)Nc1ccc2ncnc(Nc3ccc(-c4ccccc4)cc3)c2c1
IC50 [1]: > 150 nM
IC50 (cells): 4400 nM
GI50 (MDA-MB-231): 8400 nM
inhibition (Homo sapiens [2]): 89.1%
inhibition [3]: 14.5%

S=C(NCc1ccccc1)Nc1ccc2ncnc(Nc3ccc(Br)cc3)c2c1
IC50 [1]: > 150 nM
IC50 (cells): 3800 nM
GI50 (MDA-MB-231): 15100 nM
inhibition (Homo sapiens [2]): 92.1%
inhibition [3]: 47.7%

FC(F)(F)c1cccc(NC(=S)Nc2ccc3ncnc(Nc4cccc(Br)c4)c3c2)c1
IC50 [1]: 60.7 nM
IC50 (cells): 1000 nM
GI50 (MDA-MB-231): 1400 nM
inhibition (Homo sapiens [2]): 96.5%
inhibition [3]: 57.5%

Oc1cccc(Nc2ncnc3ccc(NC(=S)NCc4ccccc4)cc23)c1
IC50 [1]: 63.6 nM
GI50 (MDA-MB-231): > 30000 nM
inhibition (Homo sapiens [2]): 44.3%
inhibition [3]: 60.8%

S=C(NCc1ccccc1)Nc1ccc2ncnc(Nc3cccc(Cl)c3)c2c1
IC50 (cells): 3700 nM
GI50 (MDA-MB-231): 7300 nM
inhibition (Homo sapiens [2]): 89.7%

O=C(Nc1ccc2ncnc(Nc3cccc(Br)c3)c2c1)c1ccco1
IC50 [1]: 8.4 nM
inhibition (Homo sapiens [2]): 39.4%

NS(=O)(=O)c1ccc(NC(=S)Nc2ccc3ncnc(Nc4cccc(Br)c4)c3c2)cc1
IC50 [1]: 9.5 nM
GI50 (MDA-MB-231): > 30000 nM
inhibition (Homo sapiens [2]): 29%
inhibition [3]: 92.3%

S=C(Nc1ccc2ncnc(Nc3cccc(Br)c3)c2c1)Nc1ccc(Cl)cc1Cl
IC50 [1]: 48.9 nM
IC50 (cells): 2900 nM
GI50 (MDA-MB-231): 12200 nM
inhibition (Homo sapiens [2]): 93.1%
inhibition [3]: 66%

C=CC(=O)Nc1ccc2ncnc(Nc3cccc(C)c3F)c2c1
IC50 [1]: 1.5 nM
inhibition (Homo sapiens [2]): 70%

S=C(Nc1cccnc1)Nc1ccc2ncnc(Nc3cccc(Br)c3)c2c1
IC50 [1]: 10.2 nM
GI50 (MDA-MB-231): > 30000 nM
inhibition (Homo sapiens [2]): 42.4%
inhibition [3]: 90.4%

C=CC(=O)Nc1ccc2ncnc(Nc3ccc(Br)cc3F)c2c1
IC50 [1]: 2.1 nM
inhibition (Homo sapiens [2]): 73.6%

O=S(=O)(Nc1ccccn1)c1ccc(Nc2ncnc3ccc(NC(=S)NCc4ccccc4)cc23)cc1
IC50 [1]: > 150 nM
GI50 (MDA-MB-231): > 30000 nM
inhibition (Homo sapiens [2]): 6.6%
inhibition [3]: 20.9%

O=C(Nc1ccc(Cl)cc1)Nc1ccc2ncnc(Nc3cccc(Br)c3)c2c1
IC50 [1]: 19.3 nM
GI50 (MDA-MB-231): 10000 nM
inhibition (Homo sapiens [2]): 50.3%
inhibition [3]: 69%

S=C(Nc1ccccc1)Nc1ccc2ncnc(Nc3cccc(Br)c3)c2c1
IC50 [1]: 15.8 nM
IC50 (cells): 5200 nM
GI50 (MDA-MB-231): 10000 nM
inhibition (Homo sapiens [2]): 90.7%
inhibition [3]: 86.5%

Fc1ccc(NC(=S)Nc2ccc3ncnc(Nc4cccc(Cl)c4)c3c2)cc1F
inhibition (Homo sapiens [4]): 37.6%
inhibition [3]: 44.4%

Oc1ccc(Nc2ncnc3ccc(NC(=S)NCc4ccccc4)cc23)cc1
IC50 [1]: > 150 nM
GI50 (MDA-MB-231): 27000 nM
inhibition (Homo sapiens [2]): 24.1%
inhibition [3]: 44.1%

CNC(=S)Nc1ccc2ncnc(Nc3cccc(Br)c3)c2c1
IC50 [1]: 9.1 nM
GI50 (MDA-MB-231): > 30000 nM
inhibition (Homo sapiens [2]): 3%
inhibition [3]: 92.2%

Cc1nnc(NC(=S)Nc2ccc3ncnc(Nc4cccc(Cl)c4)c3c2)s1
IC50 [1]: 120 nM
IC50 (cells): 1200 nM
inhibition (Homo sapiens [4]): 76.1%
inhibition [3]: 70.8%

Cc1cccc(Nc2ncnc3ccc(NC(=S)NCc4ccccc4)cc23)c1C
IC50 [1]: > 150 nM
GI50 (MDA-MB-231): 28700 nM
inhibition (Homo sapiens [2]): 71.5%
inhibition [3]: 40%

S=C(Nc1cncc(Cl)c1)Nc1ccc2ncnc(Nc3cccc(Cl)c3)c2c1
IC50 [1]: 55.5 nM
IC50 (cells): 3000 nM
inhibition (Homo sapiens [4]): 78%
inhibition [3]: 85%

S=C(Nc1cc(Cl)cc(Cl)c1)Nc1ccc2ncnc(Nc3cccc(Br)c3)c2c1
IC50 [1]: 146 nM
IC50 (cells): 1800 nM
GI50 (MDA-MB-231): 3000 nM
inhibition (Homo sapiens [2]): 99.6%
inhibition [3]: 50.9%

S=C(Nc1ccc(Cl)c(Cl)c1)Nc1ccc2ncnc(Nc3cccc(Br)c3)c2c1
IC50 [1]: 133 nM
IC50 (cells): 1900 nM
GI50 (MDA-MB-231): 4800 nM
inhibition (Homo sapiens [2]): 97.2%
inhibition [3]: 52.9%

S=C(Nc1ccc2ncnc(Nc3cccc(Br)c3)c2c1)N1CCOCC1
IC50 [1]: 26.9 nM
GI50 (MDA-MB-231): > 30000 nM
inhibition (Homo sapiens [2]): 40.1%
inhibition [3]: 84%

S=C(NCCN1CCOCC1)Nc1ccc2ncnc(Nc3cccc(Br)c3)c2c1
IC50 [1]: 10.7 nM
GI50 (MDA-MB-231): > 30000 nM
inhibition (Homo sapiens [2]): 20.9%
inhibition [3]: 91.8%

S=C(Nc1ccc2ncnc(Nc3cccc(Br)c3)c2c1)Nc1ccccc1Cl
IC50 [1]: 15.8 nM
IC50 (cells): 3500 nM
GI50 (MDA-MB-231): 8500 nM
inhibition (Homo sapiens [2]): 95.8%
inhibition [3]: 84.3%

FC(F)(F)c1ccc(NC(=S)Nc2ccc3ncnc(Nc4cccc(Br)c4)c3c2)cc1
IC50 [1]: > 150 nM
IC50 (cells): 1700 nM
GI50 (MDA-MB-231): 12200 nM
inhibition (Homo sapiens [2]): 94.8%
inhibition [3]: 38.1%

N=C(N)NS(=O)(=O)c1ccc(Nc2ncnc3ccc(NC(=S)NCc4ccccc4)cc23)cc1
IC50 [1]: > 150 nM
GI50 (MDA-MB-231): > 30000 nM
inhibition (Homo sapiens [2]): 21.7%
inhibition [3]: 6.7%

Cc1cccc(Nc2ncnc3ccc(NC(=S)NCc4ccccc4)cc23)c1
IC50 [1]: 36.8 nM
GI50 (MDA-MB-231): 19500 nM
inhibition (Homo sapiens [2]): 76.4%
inhibition [3]: 68.5%

CC(C)c1ccc(Nc2ncnc3ccc(NC(=S)NCc4ccccc4)cc23)cc1
IC50 [1]: > 150 nM
IC50 (cells): 4300 nM
GI50 (MDA-MB-231): 12800 nM
inhibition (Homo sapiens [2]): 95.7%
inhibition [3]: 4.2%

NS(=O)(=O)c1ccc(Nc2ncnc3ccc(NC(=S)NCc4ccccc4)cc23)cc1
IC50 [1]: > 150 nM
GI50 (MDA-MB-231): > 30000 nM
inhibition (Homo sapiens [2]): 19.2%
inhibition [3]: 17.7%

Fc1c(NC(=S)Nc2ccc3ncnc(Nc4cccc(Br)c4)c3c2)cccc1C(F)(F)F
IC50 (cells): 1300 nM
GI50 (MDA-MB-231): 400 nM
inhibition (Homo sapiens [2]): 98%

Oc1ccc(NC(=S)Nc2ccc3ncnc(Nc4cccc(Br)c4)c3c2)cc1
IC50 [1]: 8.9 nM
IC50 (cells): 6400 nM
GI50 (MDA-MB-231): 17300 nM
inhibition (Homo sapiens [2]): 85.3%
inhibition [3]: 91.5%

O=C(NCc1ccccc1)Nc1ccc2ncnc(Nc3cccc(Br)c3)c2c1
IC50 [1]: 8.9 nM
GI50 (MDA-MB-231): > 30000 nM
inhibition (Homo sapiens [2]): 42.6%
inhibition [3]: 89.9%

CCc1cccc(Nc2ncnc3ccc(NC(=S)NCc4ccccc4)cc23)c1
IC50 [1]: > 150 nM
IC50 (cells): 4800 nM
GI50 (MDA-MB-231): 10500 nM
inhibition (Homo sapiens [2]): 92.5%
inhibition [3]: 41.7%

COc1ccc(C(=O)Nc2ccc3ncnc(Nc4cccc(Br)c4)c3c2)cc1
inhibition (Homo sapiens [2]): 33.2%

S=C(NCc1ccccc1)Nc1ccc2ncnc(Nc3ccc(Oc4ccccc4)cc3)c2c1
IC50 [1]: > 150 nM
GI50 (MDA-MB-231): 6800 nM
inhibition (Homo sapiens [2]): 73.7%
inhibition [3]: 21.9%

S=C(NCc1ccccc1)Nc1ccc2ncnc(Nc3ccccc3Br)c2c1
IC50 [1]: > 150 nM
IC50 (cells): 6500 nM
GI50 (MDA-MB-231): > 30000 nM
inhibition (Homo sapiens [2]): 85.7%
inhibition [3]: 13.1%
